According to article PMC9505973, “Sustainable Production of Biosurfactant from Agro-Industrial Oil Wastes by Bacillus subtilis and Its Potential Application as Antioxidant and ACE Inhibitor” (International Journal of Molecular Sciences, 2022):
Blank lines part the entries; values can stand above or below the molecule they belong to.

Columns and labels:
[1] = tested on: ACE in serum; conditions: HFFD rats; cited from earlier work
Procedure: Biosurfactants’ inhibitory activity was analyzed in vitro as well as in vivo, using an animal model, in the work of Zouari et al.. […] Moreover, the administration of B. subtilis SPB1 lipopeptides or atorvastatin in vivo, to hypercaloric high-fat–high-fructose diet (HFFD) rats, decr ...

[2] = Ferric reducing antioxidant power (FRAP, TEAC)
Procedure: (§1) The surfactin antioxidant activity was measured using ABTS, DPPH and FRAP assays. Each measurement was performed in triplicate. The ABTS assay was conducted according to Re et al.. In the first instance, radical cation (ABTS^•+) solution was prepared by mixing 7 mM ABTS stock solution (Sigma-Aldrich) with 2.45 mM potassium persulfate solution (Sigma-Aldrich). The mixture was incubated in the dark at room temperature for 12–16 h. Then, the reagent absorbance was adjusted to 0.7 (±0.02) at 734 nm, using distilled water as a blank. The antioxidant activity of the biosurfactant was determined by mixing 10 μL of surfactin (1 mg/mL) with 990 μL of ABTS^•+ solution. The absorbance was measured after 5 min incubation in the dark, using the Spark multimode microplate leader (Tecan Group Ltd., Männedorf, Switzerland), at 734 nm. The standard curve was prepared for Trolox ethanol solution (Sigma-Aldrich, St. Louis, MO, USA) in the range of 0–2000 μM. The activity of surfactin was expressed as the Trolox equivalent antioxidant capacity (TEAC [µM/g]).
Finally, the FRAP assay was conducted according to Benzie et al.. The reaction, performed at pH = 3.6, involved the reduction of Fe^3+ to Fe^2+ in the presence of 2,4,6-trypyridyl-s-triazine, followed by the formation of a colored complex. […]

[3] = tested on: angiotensin-converting enzyme (ACE); test: ACE-inhibitory activity assay; assay type: biochemical
Procedure: The ACE-inhibitory activity assay was performed according to Udenigwe and Aluko [56] and quantified by a regression analysis of ACE-inhibitory activity (%) versus surfactin concentration. The IC50 value, i.e., the surfactin concentration (µg/mL) that causes 50% inhibition of ACE activity, was determined. The assay was carried out in triplicate.

[4] = DPPH free radical scavenging (TEAC)
Procedure: as §1, with “The standard curve was prepared for Trolox ethanol solution (Sigma-Aldrich, St. Louis, MO, USA) in the range of 0–2000 μM.” left out
In addition, the antioxidant activity of surfactin, expressed as the ability to scavenge DPPH free radicals, was investigated according to Xu et al.. […] The sample was centrifuged (12000 rpm) and the absorbance was measured using the Spark multimode microplate leader (Tecan Group Ltd., Männedorf, Switzerland) at 517 nm. The antioxidant activity of surfactin was expressed as Trolox equivalent (TEAC [µM/g]). […]

[5] = ABTS radical cation assay (TEAC)
Procedure: as §1

Molecule: CC(C)c1c(C(=O)Nc2ccccc2)c(-c2ccccc2)c(-c2ccc(F)cc2)n1CC[C@@H](O)C[C@@H](O)CC(=O)O [atorvastatin]
reduction in ACE activity [1]: 24%

IC50, ACE-inhibitory activity ([3]; regression of ACE-inhibitory activity (%) versus surfactin concentration, triplicate): 620 ± 40 mg/L
Molecule: surfactin
TEAC, FRAP ([2]; 50 μL surfactin (1 mg/mL) + 150 μL working solution, pH 3.6, 10 min, room temperature, 593 nm, Trolox standard, triplicate): 0.76 ± 0.096 µM/g
antioxidant activity (FRAP), in words ([2]; surfactin 1 mg/mL): trace antioxidant activity
ACE inhibition, in words [3]: strong inhibitory effect against ACE activity
TEAC, DPPH ([4]; 10 μL surfactin (1 mg/mL) + 190 μL 0.1 mM DPPH in ethanol, 30 min in the dark, 517 nm, Trolox standard 0–1000 μM, triplicate): 11.67 ± 0.8 µM/g
antioxidant activity (DPPH), in words ([4]; surfactin 1 mg/mL): trace antioxidant activity
TEAC, ABTS ([5]; 10 μL surfactin (1 mg/mL) + 990 μL ABTS•+, 5 min in the dark, 734 nm, Trolox standard 0–2000 μM, triplicate): 3.77 ± 0.22 µM/g
antioxidant activity (ABTS), in words ([5]; surfactin 1 mg/mL): trace antioxidant activity
